This passage reports TGI and GI50 results from PubChem BioAssay (NCI).

Among the test systems are MOLT-4 leukemia; HL-60(TB) leukemia; KM12 colon; NCI-H460 lung; ACHN renal; A498 renal; NCI/ADR-RES ovarian; IGROV1 ovarian; UO-31 renal; UACC-62 melanoma.
Common to all, as to assay: NCI tumour cell line growth inhibition, 48 h

Molecules are shown by their SMILES.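 Where inhibition never reached the appropriate level, the endpoint shown equals the highest concentration tested. Otherwise, values were interpolated linearly from a five-concentration, 48-hour dose response in 96-well plates. GI50 = concentration required for 50% inhibition of growth. TGI: concentration producing complete growth inhibition.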 Bounds are passed on as bounds.

In the case of `CCOC(=O)C(C#N)C1=CC(=O)C(=O)c2ccc(O)cc21` (stereo not given), the TGI with MOLT-4 leukemia, in the experiment with HL-60(TB) leukemia, in the experiment on KM12 colon, in the experiment on NCI-H460 lung, in the experiment on ACHN renal and in the experiment with A498 renal was greater than 100 µM in each case. Moreover, the TGI in the experiment on NCI/ADR-RES ovarian was greater than 100 µM; in the experiment on IGROV1 ovarian, greater than 100 µM; with UO-31 renal, greater than 100 µM; in the experiment with UACC-62 melanoma, 36.9 µM.

For `CCc1nc2ccc(N=Nc3c(O)ccc4ccccc34)cc2[nH]1`, the TGI stood at 81.1 µM with MOLT-4 leukemia; 29.8 µM with HL-60(TB) leukemia; 31.9 µM in the experiment with KM12 colon; 36.8 µM in the experiment with NCI-H460 lung; 31.5 µM in the experiment with ACHN renal; 50.6 µM in the experiment with A498 renal. The TGI was 54.8 µM in the experiment on NCI/ADR-RES ovarian, 36.8 µM in the experiment on IGROV1 ovarian, 34.5 µM in the experiment with UO-31 renal and 35.3 µM with UACC-62 melanoma.

Turning to `Cc1cc(Nc2cc(N3CCN(C)CC3)nc(/C=C/c3ccccc3)n2)n[nH]1`, the GI50 is 0.186 µM in the experiment with MOLT-4 leukemia; 0.32 µM in the experiment on HL-60(TB) leukemia; 0.0426 µM with KM12 colon; 0.29 µM with NCI-H460 lung; 0.205 µM in the experiment with ACHN renal; 0.389 µM with A498 renal. Besides, the GI50 in the experiment with NCI/ADR-RES ovarian is 2.03 µM; in the experiment with IGROV1 ovarian it was 0.0542 µM; with UO-31 renal it was 0.263 µM; in the experiment on UACC-62 melanoma, 1.07 µM. Besides, the TGI in the experiment on MOLT-4 leukemia was greater than 10 µM; in the experiment with HL-60(TB) leukemia it was 2.57 µM; with KM12 colon it was greater than 3.84 µM; in the experiment with NCI-H460 lung, greater than 5.52 µM; with ACHN renal it was 3.92 µM; with A498 renal it was 1.66 µM. Moreover, the TGI in the experiment with NCI/ADR-RES ovarian was greater than 10 µM; in the experiment with IGROV1 ovarian, 1.62 µM; in the experiment with UO-31 renal, 2.7 µM; in the experiment on UACC-62 melanoma it was greater than 3.51 µM.

Turning to `CC[C@@H](C)/C=C(C)/C=C/C(=O)c1c(O)c(-c2ccc(O)cc2)cn(O)c1=O`, the GI50 with MOLT-4 leukemia is 0.31 µM; with HL-60(TB) leukemia, 0.27 µM; with KM12 colon it was 1.99 µM; with NCI-H460 lung, 0.292 µM; in the experiment on ACHN renal, 0.33 µM; in the experiment with A498 renal, 0.479 µM. For the same compound, the GI50 is 0.327 µM in the experiment on NCI/ADR-RES ovarian, 0.421 µM with IGROV1 ovarian, 0.266 µM with UO-31 renal and 0.266 µM with UACC-62 melanoma. The TGI in the experiment on MOLT-4 leukemia came out at 15.7 µM; with HL-60(TB) leukemia, 13.5 µM; in the experiment on KM12 colon, 12.7 µM; in the experiment with NCI-H460 lung, 1.11 µM; in the experiment with ACHN renal it was 9.55 µM; in the experiment on A498 renal it was 13.1 µM. Besides, the TGI amounted to 10.7 µM with NCI/ADR-RES ovarian, 11.4 µM with IGROV1 ovarian, 3.68 µM in the experiment with UO-31 renal and 0.966 µM in the experiment with UACC-62 melanoma.

As to `CC(=O)N1N=C(c2ccc(Nc3nc(Nc4ccc(F)cc4)nc(Nc4ccc(F)cc4)n3)cc2)CC1c1ccc(N(C)C)cc1` (stereo not given), the GI50 in the experiment on MOLT-4 leukemia was 1.57 µM; in the experiment with HL-60(TB) leukemia, 2 µM; with KM12 colon, 3.34 µM; with NCI-H460 lung, 4.9 µM; in the experiment with ACHN renal, 6.15 µM; in the experiment on A498 renal, 5.58 µM. For the same compound, the GI50 in the experiment with NCI/ADR-RES ovarian was 4.72 µM; in the experiment on IGROV1 ovarian, 7.09 µM; in the experiment on UO-31 renal, 5.94 µM; in the experiment on UACC-62 melanoma, 2.95 µM. Besides, the TGI was 5.7 µM in the experiment with MOLT-4 leukemia; 6.12 µM in the experiment with HL-60(TB) leukemia; 12.4 µM with KM12 colon; 17 µM with NCI-H460 lung; 18.7 µM in the experiment with ACHN renal; 26.8 µM in the experiment with A498 renal. Moreover, the TGI is 33.3 µM with NCI/ADR-RES ovarian, 30.6 µM in the experiment with IGROV1 ovarian, 35.8 µM with UO-31 renal and 12.3 µM with UACC-62 melanoma.

In the case of `NS(=O)(=O)c1cc(C(=O)O)c(O)c2ccccc12`, the TGI in the experiment on MOLT-4 leukemia, with HL-60(TB) leukemia, in the experiment on KM12 colon, in the experiment on NCI-H460 lung, in the experiment with ACHN renal and with A498 renal was greater than 100 µM each time. The TGI in the experiment with NCI/ADR-RES ovarian, with IGROV1 ovarian, with UO-31 renal and with UACC-62 melanoma was greater than 100 µM throughout.

In the case of `Cc1cc(Nc2nc(N[C@@H](C)c3ncc(F)cn3)ncc2Cl)n[nH]1`, the GI50 is 60.7 µM in the experiment with MOLT-4 leukemia; 29.9 µM in the experiment on HL-60(TB) leukemia; 0.369 µM with KM12 colon; 22.2 µM in the experiment on NCI-H460 lung; 20.4 µM in the experiment on ACHN renal; 1.85 µM in the experiment with A498 renal. Moreover, the GI50 in the experiment with NCI/ADR-RES ovarian is 32 µM; in the experiment with IGROV1 ovarian it was 26.1 µM; in the experiment on UO-31 renal it was 24.6 µM; with UACC-62 melanoma it was 11.7 µM. Besides, the TGI was greater than 100 µM in the experiment with MOLT-4 leukemia; greater than 100 µM with HL-60(TB) leukemia; greater than 64.1 µM in the experiment with KM12 colon; greater than 100 µM with NCI-H460 lung; greater than 100 µM in the experiment with ACHN renal; 13.1 µM in the experiment with A498 renal. For the same compound, the TGI with NCI/ADR-RES ovarian was greater than 100 µM; in the experiment on IGROV1 ovarian, greater than 100 µM; with UO-31 renal, greater than 100 µM; in the experiment on UACC-62 melanoma, 88 µM.

For the compound `Cn1cc(-c2cnn3c(N)c(Br)c(C4CCCNC4)nc23)cn1` (stereo not given), the GI50 was 0.575 µM in the experiment with MOLT-4 leukemia; 1.62 µM in the experiment with HL-60(TB) leukemia; 3.69 µM with KM12 colon; 6.54 µM in the experiment with NCI-H460 lung; 0.417 µM with ACHN renal; 0.238 µM in the experiment on A498 renal. In addition, the GI50 with NCI/ADR-RES ovarian was 8.36 µM; with IGROV1 ovarian, 6.72 µM; with UO-31 renal it was 4.63 µM; with UACC-62 melanoma, 8.9 µM. The TGI was 23.2 µM in the experiment on MOLT-4 leukemia; 35.1 µM with HL-60(TB) leukemia; 44.7 µM in the experiment with KM12 colon; 30.7 µM with NCI-H460 lung; greater than 100 µM in the experiment with ACHN renal; 2 µM in the experiment with A498 renal. Besides, the TGI with NCI/ADR-RES ovarian is greater than 100 µM; with IGROV1 ovarian, greater than 100 µM; in the experiment with UO-31 renal, greater than 78.3 µM; in the experiment with UACC-62 melanoma, 28.8 µM.

On to `CCCCCC/C=C\CCCCCCCCCC1=C(CN2CCN(C)CC2)C(=O)C=C(OC)C1=O`, for which the TGI came out at 1.65 µM in the experiment with MOLT-4 leukemia; 2.97 µM with HL-60(TB) leukemia; 21 µM in the experiment with KM12 colon; 23.2 µM in the experiment on NCI-H460 lung; 13 µM in the experiment with ACHN renal; 32.6 µM in the experiment with A498 renal. Besides, the TGI with NCI/ADR-RES ovarian amounted to 11.5 µM; in the experiment with IGROV1 ovarian, 18.3 µM; in the experiment on UO-31 renal it was 9.2 µM; with UACC-62 melanoma it was 25.5 µM.
